Results from patent publication US8642094B2, “Synergistic pharmaceutical composition, method of making same and use of same” (Afexa Life Sciences Inc., priority 2008, dated 2014).

What was measured:
[1] = tested on: secretion of apo-B from HepG2 cells; test: Apo-B secretion from HepG2 cells; assay type: cell-based, human; conditions: for nature of interaction with berberine (BBR): non-linear blending, combined total dose 50 ug/ml, FIGS. 36-40; for nature of interaction with ethanol extract of HL: non-linear blending curves, combined total doses 30-250 ug/ml, FIGS. 9-11, 14-35
Method: In the Examples to follow, Apo-B secretion experiments were carried out on HepG2 cells. These cells were obtained from the American Type Culture Collection (cat #: ATCC HB-8065). HepG2, a human hepatoblastoma-derived cell line, is one of the most commonly used models to study lipoprotein uptake and metabolism in intact human liver. These cells secrete most of the plasma proteins secreted from human liver cells including apolipoprotein-B [38]. In addition, most of the enzymes involved in intra- and extracellular cholesterol metabolism including LCAT, ACAT, HMG-CoA reductase and Cholesterol 7-α-hydroxylase are expressed in these cells.
The effects of HL, KDC and hawthorn extracts, when used in isolation as well as in combination, on the secretion of apo-B from human hepatoma cells, Hep-G2 was determined. Water extracts of Coptis chinesis (Huanglian) and Ku Ding Cha (Ilex kudingcha) were developed and tested; results are indicated in FIGS. 1 and 2, respectively. Ethanolic extracts of Coptis chinesis (Huanglian) and ethyl acetate extracts of Ku Ding Cha (Ilex kudingcha) were also developed and hawthorn extract was used for these experiments shown in FIGS. 3-12.
Additional experiments were subsequently carried out to confirm the synergism between the HL and KDC extracts. Three commonly used approaches including non-linear blending, isobologram and combination index were utilized to determine this interaction.
Determination of a drugs combination index (CI) provides quantitative information of the nature of drug interaction. It is calculated through the following equation: CI=(CA,X/ICX,A)+(CB,X/ICX,B) CA,X and CB,X, are the concentrations of drug A and drug B used in the combination to achieve x % drug effect. ICX,A and ICX,B are the concentrations for single agents to achieve the same effect. A CI of less than, equal to, and more than 1 indicates synergy, additivity, and antagonism, respectively.

[2] = target: acyl-CoA: cholesterol acyltransferase (ACAT); conditions: cited from earlier work
[3] = target: T1, squalene synthase (Homo sapiens, UniProt P37268); conditions: cited from earlier work
T1 sequence (P37268 1-417): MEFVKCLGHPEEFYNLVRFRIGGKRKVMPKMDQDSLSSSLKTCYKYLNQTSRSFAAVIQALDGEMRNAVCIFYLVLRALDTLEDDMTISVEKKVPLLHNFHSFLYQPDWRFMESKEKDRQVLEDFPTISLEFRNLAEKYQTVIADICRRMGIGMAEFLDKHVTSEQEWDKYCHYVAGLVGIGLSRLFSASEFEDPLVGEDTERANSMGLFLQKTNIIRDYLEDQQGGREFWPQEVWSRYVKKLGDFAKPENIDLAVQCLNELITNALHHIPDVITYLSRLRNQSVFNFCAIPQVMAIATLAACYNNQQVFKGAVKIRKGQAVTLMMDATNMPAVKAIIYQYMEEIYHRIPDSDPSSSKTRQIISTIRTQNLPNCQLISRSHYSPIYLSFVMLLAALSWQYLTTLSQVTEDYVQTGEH

[4] = 1 g/day for 3 months; cited from earlier work
[5] = tested on: mice; conditions: mouse, in vivo; cited from earlier work
[6] = tested on: L929 cells; conditions: cited from earlier work
[7] = oral, 100 mg/day for 2 weeks; cited from earlier work
[8] = tested on: Hep G2 cells; conditions: cited from earlier work
[9] = target: T2, CYP2E1 (Homo sapiens, UniProt P05181); conditions: human liver microsomes, 20 μM; cited from earlier work
T2 construct: incubation of human liver microsomes with BBR; from tissue; host or cells: human liver microsomes

[10] = tested on: LDL receptors; conditions: Hep G2 cells; cited from earlier work
[11] = target: T3, CYP2D6 (Homo sapiens, UniProt P10635); conditions: human liver microsomes, 20 μM; cited from earlier work
T3 construct: incubation of human liver microsomes with BBR; from tissue; host or cells: human liver microsomes

[12] = tested on: 3T3-L1 adipocytes; conditions: cited from earlier work
[13] = target: T4, CYP3A4 (Homo sapiens, UniProt P08684); conditions: human liver microsomes, 20 μM; cited from earlier work
T4 construct: incubation of human liver microsomes with BBR; from tissue; host or cells: human liver microsomes

[14] = target: nucleoside triphosphate hydrolase (NTPase); conditions: cited from earlier work

T3 sequence (P10635 whole entry): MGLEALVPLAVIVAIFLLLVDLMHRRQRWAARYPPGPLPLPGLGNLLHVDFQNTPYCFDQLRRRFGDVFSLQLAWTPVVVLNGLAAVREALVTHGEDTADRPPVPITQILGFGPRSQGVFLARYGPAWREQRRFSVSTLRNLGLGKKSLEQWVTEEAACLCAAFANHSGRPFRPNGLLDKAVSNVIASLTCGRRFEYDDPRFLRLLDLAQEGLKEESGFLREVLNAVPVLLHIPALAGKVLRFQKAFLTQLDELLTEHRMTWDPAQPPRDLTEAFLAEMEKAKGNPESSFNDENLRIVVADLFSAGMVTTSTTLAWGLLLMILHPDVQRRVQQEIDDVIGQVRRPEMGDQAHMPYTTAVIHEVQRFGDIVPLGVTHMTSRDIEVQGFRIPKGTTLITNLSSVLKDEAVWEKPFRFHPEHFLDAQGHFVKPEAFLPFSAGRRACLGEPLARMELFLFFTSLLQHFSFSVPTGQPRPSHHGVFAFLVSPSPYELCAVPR
T2 sequence (P05181 whole entry): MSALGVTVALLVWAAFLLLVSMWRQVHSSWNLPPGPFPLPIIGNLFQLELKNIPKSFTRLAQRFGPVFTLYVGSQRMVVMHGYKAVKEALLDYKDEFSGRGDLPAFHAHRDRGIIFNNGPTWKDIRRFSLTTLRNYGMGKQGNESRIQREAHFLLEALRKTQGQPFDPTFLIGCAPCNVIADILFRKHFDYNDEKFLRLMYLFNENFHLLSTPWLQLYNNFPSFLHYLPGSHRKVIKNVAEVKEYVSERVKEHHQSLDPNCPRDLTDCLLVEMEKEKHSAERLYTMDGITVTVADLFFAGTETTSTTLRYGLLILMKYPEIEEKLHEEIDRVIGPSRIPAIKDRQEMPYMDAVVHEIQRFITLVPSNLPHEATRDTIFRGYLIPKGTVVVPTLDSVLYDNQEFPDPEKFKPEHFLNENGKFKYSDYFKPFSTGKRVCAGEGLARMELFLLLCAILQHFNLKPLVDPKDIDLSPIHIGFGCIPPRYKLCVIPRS
T4 sequence (P08684 whole entry): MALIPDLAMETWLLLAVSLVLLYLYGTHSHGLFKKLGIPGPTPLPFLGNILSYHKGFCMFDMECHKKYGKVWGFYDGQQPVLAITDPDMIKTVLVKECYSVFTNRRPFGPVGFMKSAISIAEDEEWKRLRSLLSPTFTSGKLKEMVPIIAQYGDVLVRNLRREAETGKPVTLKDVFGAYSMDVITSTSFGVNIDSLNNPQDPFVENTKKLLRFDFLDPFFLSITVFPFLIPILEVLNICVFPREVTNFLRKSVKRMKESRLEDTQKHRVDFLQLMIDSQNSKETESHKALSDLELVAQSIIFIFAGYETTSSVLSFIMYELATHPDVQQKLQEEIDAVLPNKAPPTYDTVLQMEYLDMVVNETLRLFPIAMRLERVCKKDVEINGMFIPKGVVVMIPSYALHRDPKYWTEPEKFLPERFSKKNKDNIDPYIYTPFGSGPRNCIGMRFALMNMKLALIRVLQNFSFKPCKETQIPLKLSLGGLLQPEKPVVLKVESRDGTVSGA

For COc1cc2c(cc1OC)-c1cc3ccc(OC)c(OC)c3c[n+]1CC2 [Palmitine chloride, palmitine chloride], the “nature of interaction with berberine (BBR)” value (“nature of interaction … (BBR)” for short) [1] was “interact synergistically”.
For C=C(C)[C@@H]1CC[C@]2(CO)CC[C@]3(C)[C@H](CC[C@@H]4[C@@]5(C)CC[C@H](O)C(C)(C)[C@@H]5CC[C@]43C)[C@@H]12 [betulin, lup-20[29]-ene-3β,28-diol], the “nature of interaction with ethanol extract of HL” value (“nature of interaction … of HL” below) [1] is given as “interacting with HL”, the “nature of interaction … (BBR)” value [1] is given as “synergism” and the IC50 [2] is given as 83 µM.
In the case of Lipedoside B-III, the IC50 [2] is given as 269 µM.
For O=C(/C=C/c1ccc(O)c(O)c1)O[C@@H]1C[C@](O)(C(=O)O)C[C@@H](O)[C@H]1O [Chlorogenic acid], the “nature of interaction … of HL” value [1] is given as “synergism”, the “nature of interaction … (BBR)” value [1] is given as “synergism” and the IC50 [3] is given as 0.1 µM.
For COc1ccc2cc3[n+](cc2c1OC)CCc1cc2c(cc1-3)OCO2 [berberine], the “reduction of LDL-cholesterol” value [4] is given as 25%, the “reduction of serum cholesterol concentrations” value [4] is given as 29% and the reduction of triglycerides [4] is given as 35%. The lethal dose [5] was “exceeding 15 mg/Kg”, the dose inducing cytotoxicity [6] was “greater than 40 μg/ml” and the “reduction of serum LDL-cholesterol levels” value [7] was “up to 30%”. The “reduction of serum total cholesterol levels” value [7] was “up to 30%”, the “synthesis of cholesterol and triglyceride in the cells” value [8] was “inhibit the synthesis of cholesterol and triglyceride” and the CYP2E1 activity [9] was “decrease the activities”. For the same molecule, the “expression of LDL receptors” value [10] was “increases the expression of LDL receptors”, the CYP2D6 activity [11] was “decrease the activities” and the “differentiation of 3T3-L1 adipocytes” value [12] was “inhibit differentiation”. For the same molecule, the CYP3A4 activity [13] was “decrease the activities”.
For C[C@H]1[C@H](C)CC[C@]2(C(=O)O)CC[C@]3(C)C(=CC[C@@H]4[C@@]5(C)CC[C@H](O)C(C)(C)[C@@H]5CC[C@]43C)[C@H]12 [ursolic acid, 3β-Hydroxy-12-ursen-28-ic acid], the IC50 [14] is listed as 0.6 µM, the “nature of interaction … of HL” value [1] is listed as “interacting with HL” and the “nature of interaction … (BBR)” value [1] is listed as “synergism”. The IC50 [2] was 58.8 µM.
For C=C(C)[C@@H]1CC[C@]2(C)CC[C@]3(C)[C@H](CC[C@@H]4[C@@]5(C)CC[C@H](O)C(C)(C)[C@@H]5CC[C@]43C)[C@@H]12 [Lupeol, 3β-Hydroxy-20(29)-lupene], the “nature of interaction … of HL” value [1] is listed as “interacting with HL”, the “nature of interaction … (BBR)” value [1] is listed as “synergism” and the IC50 [2] is listed as 48 µM.
